This note sets out measurements from BindingDB's records for patent US12391671 (Dana-Farber Cancer Institute, 2025).

Test in all cases: HTRF-Based EGFR Biochemical Assay
Background: In TR-FRET formats the signal depends on donor and acceptor labels being close together.

The target of test [1] is Epidermal growth factor receptor [L858R] (Homo sapiens, UniProt P00533, L858R). Here is the method: (§1) EGFR biochemical activity measurements were carried out using the homogeneous time-resolved fluorescence (HTRF) assay (Cisbio), inhibitors and DMSO normalizations were first dispensed to empty black low-volume 384-well plates (Corning) with 0300 digital liquid dispenser (HP). All reactions were carried out at room temperature and solutions were added to plates with a Multidrop Combi Reagent Dispenser (ThermoFisher). The reaction mixture (10 μL final volume) contained 1 μM tyrosine kinase peptide-biotin substrate and mutant EGFR in a reaction buffer (50 mM HEPES pH 7.0, 5 mM MgCl2, 1 mM MnCl2, 0.01% BSA, 2 mM TCEP, 0.1 mM NaVO4). Enzyme concentrations were adjusted to accommodate varying kinase activities (L858R 0.1 nM, L858R/T790M 0.02 nM). Enzyme reaction solution (2× concentrations, 5 μL) was added to 384-well plates containing compounds and incubated for 30 mins. Enzyme reactions were initiated with the addition of 5 μL of ATP to a final concentration of 100 μM and reacted for 20 mins. Reactions were quenched with the addition of 10 μL of phospho-tyrosine antibody-Europium(III) cryptate (1-to-180 volume ratio) and Streptavidin-XL665 (46.7 nM) in EDTA-containing detection buffer, then incubated at room temperature for 1 hour, and read with a PHERAstar plate reader (excitation=337 nm, emission=620 nm and 665 nm).

Test [2] has as its target Epidermal growth factor receptor [T790M,L858R] (Homo sapiens, UniProt P00533, L858R/T790M). Here is the method:
as §1

In test [3] the target is Epidermal growth factor receptor [T790M,L858R] (Homo sapiens, UniProt P00533, T790M/L858R). Here is the method: as §1
Epidermal growth factor receptor [T790M,L858R] (Homo sapiens, UniProt P00533, T790M/L858R), sequence (P00533 25-1210 T790M/L858R limits assumed): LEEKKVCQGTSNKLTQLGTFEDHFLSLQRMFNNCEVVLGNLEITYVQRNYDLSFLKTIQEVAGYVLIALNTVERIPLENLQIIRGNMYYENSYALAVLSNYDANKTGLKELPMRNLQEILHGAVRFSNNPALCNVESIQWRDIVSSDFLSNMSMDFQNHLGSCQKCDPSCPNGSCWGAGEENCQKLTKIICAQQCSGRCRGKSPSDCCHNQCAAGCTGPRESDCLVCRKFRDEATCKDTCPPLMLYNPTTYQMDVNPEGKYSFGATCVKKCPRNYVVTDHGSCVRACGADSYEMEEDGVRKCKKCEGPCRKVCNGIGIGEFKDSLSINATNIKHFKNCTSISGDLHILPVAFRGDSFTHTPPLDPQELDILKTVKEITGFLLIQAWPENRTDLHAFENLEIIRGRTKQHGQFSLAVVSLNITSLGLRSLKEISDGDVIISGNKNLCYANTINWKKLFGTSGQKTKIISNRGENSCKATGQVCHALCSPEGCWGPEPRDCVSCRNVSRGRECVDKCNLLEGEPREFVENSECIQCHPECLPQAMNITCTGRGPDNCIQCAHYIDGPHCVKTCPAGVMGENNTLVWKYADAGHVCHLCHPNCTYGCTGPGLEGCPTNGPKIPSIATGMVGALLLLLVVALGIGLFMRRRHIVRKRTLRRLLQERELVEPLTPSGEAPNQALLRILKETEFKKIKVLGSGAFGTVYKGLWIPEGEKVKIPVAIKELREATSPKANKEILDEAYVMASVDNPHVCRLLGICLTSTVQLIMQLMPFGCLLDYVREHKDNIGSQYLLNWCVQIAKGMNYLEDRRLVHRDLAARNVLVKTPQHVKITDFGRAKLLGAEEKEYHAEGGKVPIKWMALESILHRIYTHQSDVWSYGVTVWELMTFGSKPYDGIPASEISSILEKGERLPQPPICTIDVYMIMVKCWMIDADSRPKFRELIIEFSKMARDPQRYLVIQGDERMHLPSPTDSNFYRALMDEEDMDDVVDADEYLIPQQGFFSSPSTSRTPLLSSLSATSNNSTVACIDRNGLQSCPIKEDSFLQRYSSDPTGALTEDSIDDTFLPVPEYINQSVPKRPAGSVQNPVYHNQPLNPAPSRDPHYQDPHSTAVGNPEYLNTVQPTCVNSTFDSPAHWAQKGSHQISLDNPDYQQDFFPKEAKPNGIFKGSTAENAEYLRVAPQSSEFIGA

Epidermal growth factor receptor [L858R], sequence (P00533 25-1210 L858R limits assumed): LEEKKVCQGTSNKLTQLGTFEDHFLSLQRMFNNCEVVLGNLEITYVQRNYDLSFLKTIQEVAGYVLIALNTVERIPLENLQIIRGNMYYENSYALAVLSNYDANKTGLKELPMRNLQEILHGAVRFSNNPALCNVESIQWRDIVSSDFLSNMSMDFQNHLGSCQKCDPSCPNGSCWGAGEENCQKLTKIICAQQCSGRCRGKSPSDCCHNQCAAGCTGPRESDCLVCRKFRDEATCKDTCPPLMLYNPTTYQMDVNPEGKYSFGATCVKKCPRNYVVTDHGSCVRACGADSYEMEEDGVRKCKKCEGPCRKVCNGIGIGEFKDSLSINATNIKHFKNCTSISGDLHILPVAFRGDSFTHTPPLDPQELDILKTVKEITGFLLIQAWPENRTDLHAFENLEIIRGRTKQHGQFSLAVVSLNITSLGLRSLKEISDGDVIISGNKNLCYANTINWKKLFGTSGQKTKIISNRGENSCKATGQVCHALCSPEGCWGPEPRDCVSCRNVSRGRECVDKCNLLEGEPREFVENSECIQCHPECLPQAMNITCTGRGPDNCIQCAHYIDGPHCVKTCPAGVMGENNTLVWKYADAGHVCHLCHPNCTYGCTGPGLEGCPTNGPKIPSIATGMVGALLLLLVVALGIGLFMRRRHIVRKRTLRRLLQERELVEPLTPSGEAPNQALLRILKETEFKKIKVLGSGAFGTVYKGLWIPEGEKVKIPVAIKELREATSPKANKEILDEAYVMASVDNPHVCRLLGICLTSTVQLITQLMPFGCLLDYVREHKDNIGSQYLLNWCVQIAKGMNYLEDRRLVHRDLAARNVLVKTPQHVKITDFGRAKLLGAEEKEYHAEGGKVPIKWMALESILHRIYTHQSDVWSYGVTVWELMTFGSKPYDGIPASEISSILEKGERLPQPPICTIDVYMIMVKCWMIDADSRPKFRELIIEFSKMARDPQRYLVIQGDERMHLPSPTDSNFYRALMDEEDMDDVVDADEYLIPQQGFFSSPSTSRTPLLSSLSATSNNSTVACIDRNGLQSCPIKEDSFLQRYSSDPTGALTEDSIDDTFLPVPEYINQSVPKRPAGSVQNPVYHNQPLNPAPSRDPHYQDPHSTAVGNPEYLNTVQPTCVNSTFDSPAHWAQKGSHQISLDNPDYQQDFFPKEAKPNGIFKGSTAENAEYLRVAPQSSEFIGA
Epidermal growth factor receptor [T790M,L858R] (Homo sapiens, UniProt P00533, L858R/T790M), sequence (P00533 25-1210 T790M/L858R limits assumed): as the sequence (P00533 25-1210 T790M/L858R limits assumed) above

Usually IC50 stands for the concentration at which inhibition is half-maximal. In the case of `O=C1c2cc(-c3ccc(N4CCNCC4)cc3)ccc2CN1C(c1nc2ccccc2[nH]1)c1cc(F)ccc1O` (stereo not drawn) [US12391671, Compound 021], the IC50 turned out to be 6 nM in test [1] and 2 nM in test [2].

For `CC1=CNC([C@H](c2cc(F)ccc2O)N2CC3=CC=C(c4ccc(C5CCN(C)CC5)cc4)C(F)C3C2=O)N1` (stereo partly drawn) [US12391671, Compound 094], the IC50 in test [1] was found to be 1 nM; in test [3] it was 2 nM.

As to `CN1CCC(c2ccc(-c3ccc4c(c3F)C(=O)N(C(c3nc5ccccc5[nH]3)c3cc(F)ccc3O)C4)cc2)CC1` (stereo not drawn) [US12391671, Compound 032], the IC50 amounted to 2 nM in test [1] and 0.3 nM in test [2].

On to `CN1CCC(c2ccc(-c3ccc4c(c3)C(=O)N(C(c3nc5ccccc5[nH]3)c3cccc(Cl)c3O)C4)cc2)CC1` (stereo not drawn) [US12391671, Compound 043], for which the values for the IC50 in test [1] and in test [2] were 49 nM and 73 nM, respectively.
